Reference: patent publication US10065965B2, “Imidazo[1,2-B][1,2,4]triazine derivatives as antiparasitic agents” (GlaxoSmithKline Intellectual Property Development Limited, priority 2015, dated 2018)
Converted amounts (≈) assume the structure as drawn.

Columns and labels:
[1] = Assay 4 solubility assay, ChemiLuminescent Nitrogen Detection (CLND); assay type: physicochemical; details: phosphate buffered saline, pH 7.4, aqueous buffer, kinetic from dmso stock, pH 7.4 PBS, from 10 mM DMSO stock, 1 h at room temperature
Description: A 10 mM DMSO stock solution of the compound was prepared. Solvents and Buffers Organic solvents of HPLC grade were used. Ultra pure water (Milli-Q grade) was used. Buffers were prepared with ultra pure water and filtered using 0.45μ cameo filters. Aqueous Buffer Solution: Phosphate Buffer Saline (PBS) @ pH 7.4 was prepared from Sigma dry powder packs, P-3813. Each one was diluted to 1 liter with deionised water. The pH was checked before the solution was used II. Procedures. • a) DMSO concentration was measured. DMSO blanks and ondansetron and caffeine standards were added to the plate (column 12, A, B, C, & D for the blanks and E, F, G, & H for the standards). Plates were covered with foil. When the UV and CLND detectors baselines appeared to be stable, the CLND was zeroed. • b) Once DMSO concentration measurements were complete, a filtration plate was prepared from each parent plate by diluting 5 μl of the 10 mM DMSO stock solution to […] with pH7.4 PBS. • c) After the plates were prepared, they were covered with a plate lid and left to incubate for 1 h at room temperature. • d) Sample was filtered using MILLIPORE MultiScreen Solubility (MSSLBPC10) Filtration Plates, to NUNC V well plates. The filter plate was removed and the NUNC plate was sealed with a power seal plate seal. • e) HPLC/CLND instruments were set up and left to equilibrate. Mobile phases (MeOH:H2O 1:1, flow rate: 0.2 ml/min, sensitivity z10, Gain High). The samples were run. • f) The assay curve fit was done by linear regression and solubility values were reported in μM.

[2] = Assay 5 Leishmania donovani intracellular assay, cytotoxicity against THP-1 cells; assay type: cell-based; details: human, total number of THP-1 cells, minimum threshold 4.3, read-out: cytotoxicity against THP-1 cells, pEC50 value (converted)
Description: Compounds were dispensed into black 384-well assay plates (Greiner) by acoustic dispensing (LabCyte ECHO). For potency determinations, eleven-point, one in three dilution curves were generated, with a top concentration of 50 μM. THP-1 human monocytes cells were dispensed in T225 tissue culture flasks and differentiated using 30 nM of PMA, after 24 hours they were infected overnight using Leishmania donovani expressing Green Fluorescent Protein (eGFP) amastigotes in the same T225 tissue culture flasks at a multiplicity of infection of 10. Next, any remaining free amastigotes were washed away with PBS and the infected THP-1 cells were harvested by trypsinisation. The infected cells were then plated into 384-well plates containing the compounds to be tested, at 3000 cells per well in RPMI media with 2% FBS and 25 mM Sodium bicarbonate. After 96 h incubation at 37° C. in presence of 5% CO2, the plates were fixed with 4% formaldehyde for 30 minutes, washed with PBS and stained with 0.1 mg/mL of DAPI for 30 minutes and washed again with PBS. The plates were imaged on a Perkin Elmer Opera high-content imaging system using a 20× air objective with two expositions, one for DAPI stain and other for eGFP. Images were analysed using the Acapella building blocks system (Perkin Elmer). The image analysis algorithm first identified the THP-1 nuclei followed by demarcation of the cytoplasm and identification of intracellular amastigotes. This algorithm reported mean number of parasites per THP-1 cell, the percentage of infected THP-1 cells and the total number of THP-1 cells.

Trypanosoma cruzi = test: Assay 6 Trypanosoma cruzi intracellular assay (infected H9C2 cells); assay type: cell-based; details: H9c2, in Rattus norvegicus, 72 h, infected H9C2 rat cardiomyocytes, read-out: pEC50 value against Trypanosoma cruzi (converted)
Description: Compounds were dispensed into black 384-well assay plates (Greiner) by acoustic dispensing (LabCyte ECHO). For potency determinations, eleven-point, one in three dilution curves were generated, with a top concentration of 50 μM. H9C2 rat cardiomyocytes cells were dispensed in T225 tissue culture flasks and after 4 hours they were infected during 18 hours with T. cruzi trypomastigotes in the same T225 tissue culture flasks at a multiplicity of infection of 1. Next, any remaining free trypomastigotes were washed away with PBS and the infected H9C2 cells were harvested by trypsinisation. The infected H9C2 cells were then plated into 384-well plates containing the compounds to be tested, at 2500 cells per well in DMEM media with 2% FBS, 1% Penicillin/Streptomocin, 2 mM L-Glutamine, 1 mM Na Pyruvate and 25 mM HEPES. After 72 h incubation at 37° C. in presence of 5% CO2, the plates were fixed and stained with 4% formaldehyde and 2 μM Draq5 for 3 hours at room temperature. The plates were imaged on a Perkin Elmer Opera high-content imaging system using a 20× air objective. Images were analysed using the Acapella building blocks system (Perkin Elmer). The image analysis algorithm first identified the H9C2 nuclei followed by demarcation of the cytoplasm and identification of intracellular amastigotes. This algorithm reported mean number of parasites per H9C2 cell, the percentage of infected H9C2 cells and the total number of H9C2 cells.

Row | solubility at 1 h [1] [µM] | Structure (SMILES) | EC50 at 96 h [2] [µM] | EC50 (Trypanosoma cruzi) [µM]
1 | 10 to 83 (≈ 4 to 33.2 µg/mL) | CC(C)OC(=O)Nc1ccc(F)c(-c2cn3nc(N4CCOCC4)cnc3n2)c1 [Example 48, isopropyl (4-fluoro-3-(2-morpholinoimidazo[1,2-b] [1,2,4]triazin-6-yl)phenyl)carbamate] | 2.51 to 10 | 0.00501 to 0.631
2 | 100 to 416 (≈ 46 to 191 µg/mL) | CN(C)Cc1cccc(-c2cnc3nc(-c4cc(NC(=O)N5CCCC5)ccc4F)cn3n2)c1 [Example 41, N-(3-(2-(3-((dimethyl-amino)methyl)phenyl)imidazo[1,2-b][1,2,4]triazin-6-yl)-4-fluorophenyl)pyrrolidine-1-carboxamide] | 2.51 to 10 | 0.00501 to 0.631
3 | 10 to 83 (≈ 4.6 to 38.1 µg/mL) | CN(C)Cc1ccc(-c2cnc3nc(-c4cc(NC(=O)N5CCCC5)ccc4F)cn3n2)cc1 [Example 37, N-(3-(2-(4-((dimethyl-amino)methyl)phenyl)imidazo[1,2-b][1,2,4]triazin-6-yl)-4-fluoro-phenyl)pyrrolidine-1-carboxamide] | 2.51 to 10 | 0.00501 to 0.631
4 | 100 to 416 (≈ 44.6 to 185 µg/mL) | CNCc1cccc(-c2cnc3nc(-c4cc(NC(=O)N5CCCC5)ccc4F)cn3n2)c1 [Example 44, N-(4-fluoro-3-(2-(3-((methylamino)methyl)phenyl)imidazo[1,2-b] [1,2,4]triazin-6-yl)phenyl) pyrrolidine-1-carboxamide] | 2.51 to 10 | 0.00501 to 0.631
